Melting point data for 64 compounds are collected here from a melting point compilation (Tetko et al.; mined from patent text by program, amines drawn as free bases though some values may be those of a salt).

`N#Cc1ccc([C@H]2CC[C@H](CCC=O)CC2)cc1`: the melting point – broadly, the temperature, or range, at which the solid turns liquid – turned out to be 30 °C.
Take `O=c1[nH]ccn1-c1ccc(OCC(F)(F)C(F)F)cc1`: the melting point is 157 to 159 °C.
`NCCCCOc1cccc(CN2CCCCC2)c1` came in with a melting point of 92 to 93 °C.
In turn, `Cn1cc(-c2cc(-c3ccncc3)ccn2)n(-c2ccc(C(C)(C)C#N)cc2)c1=O` gave a melting point of 226 °C.
For the compound `CSc1cc2ccc(-c3ccccc3)cc2cc1OS(=O)(=O)C(F)(F)F`, the melting point lay in the range of 87.8 to 88.7 °C.
For `C#Cc1cc(Cl)cc2nc(Cc3cc(C(C)(C)C)c(O)c(C(C)(C)C)c3)oc12` the value was 152 to 155 °C; for `O=C1Oc2ccc3ccccc3c2CC1C(=O)c1cccc(C(F)(F)F)c1` (centres undefined), 192 to 193 °C.
For `N#Cc1ccc(N2CCOCC2)cc1` the value was 80 to 81 °C.
For `CC(CSC(=O)C(C)(C)C)C(=O)N1C(C(=O)O)CC2CCCCC21` (centres undefined) the value was 134 to 136 °C; for `CC(C)OC(=O)Nc1ccc(O)c(Cl)c1`, 89 to 90 °C.
`CS(=O)(=O)C(Cl)(Cl)C(=O)c1ccccc1Cl` returned a melting point of 81 to 82 °C.
For `CC1=NC2CN=C(c3ccccc3)c3cc(Cl)ccc3C2C(=O)N1` (centres undefined) the value was 155 to 160 °C.
To `COc1cc(-c2nc(C)ncc2Br)c(F)cc1Cl` belongs 106 to 107 °C.
To `Cc1noc(-c2cccc(CN3C(=O)C4(COc5cc6c(cc54)OCCO6)c4ccccc43)c2)n1` (centres undefined) belongs 80 to 89 °C; to `CCOC(=O)Cc1nn2c(-c3ccc(OC)cc3)nnc2c2ccccc12`, 201 to 202 °C.
In turn, `Cc1cc(C)cc(NC(=O)Cc2ccc(OC3(C(=O)O)CCOC3C)cc2)c1` (racemic) displayed a melting point of 164 to 167 °C.
For `CCOC(=O)/C=C/c1c(-c2ccc(F)cc2)n(CCF)c(=O)c2ccccc12` the value was 136 to 137 °C; for `NS(=O)(=O)c1ccc(-n2nc(CNC(=O)Nc3cccc(C(F)(F)F)c3)cc2-c2ccccc2)cc1`, 185 to 190 °C; for `O=C(/C=C/c1ccc(O)cc1)CC(=O)/C=C/c1ccccc1CO`, 173 to 180 °C.
To `Cc1cc(-c2nc3c(Cl)cccc3c(=O)[nH]2)cc(C)c1OCCN1CCCC1` belongs 216 to 217 °C.
To `Nc1ccc(-c2nc(Cc3ccccc3)no2)cc1Br` belongs 144 to 145 °C.
The compound `COc1ccc(-c2cc3nc(N4CCOCC4)c4ccccc4c3nn2)cc1` had a melting point of 218 to 220 °C.
To `N#CCCNC(=O)c1cccc(-c2ccc3c(c2)N(Cc2ccc(Cl)cc2Cl)CC3)c1` belongs 148 to 149 °C; to `CCN(CC)C(=O)C=Cc1ccc(C2=C(c3ccc(O)cc3)CCc3cc(O)ccc32)cc1`, 222 °C.
With `OC1C(COC2CC2)OC(n2cnc3c(NC4CCCC4)ncnc32)C1O` (centres undefined), the melting point was in the range of 126 to 128 °C.
With `Nc1nc(N)nc(-c2ccc(NS(=O)(=O)c3cc(Cl)ccc3Cl)cc2)n1`, the melting point fell in the range of 230 to 233 °C.
To `CN(C1=CC(C)(C)Oc2ccc(OCCCC(F)(F)F)cc21)S(C)(=O)=O` belongs 118 °C.
To `Nc1nc2c(ncn2COCCOC(=O)c2ccccc2)c(=O)[nH]1` belongs 222 to 226 °C; to `COc1ccc(C(=O)Nc2ccccc2)cc1NS(=O)(=O)c1ccc(C(F)(F)F)cc1`, 197 to 198 °C.
For the compound `O=C1Nc2cccc(/C=C/c3ccccc3Cl)c2/C1=C/c1ccc[nH]1`, the melting point fell in the range of 257 to 258 °C.
For the compound `COC(=O)c1ccccc1C1=NC(C)C(=S)N1` (centres undefined), the melting point fell in the range of 134 to 138 °C.
For `CCCCCCCC1=CC(=O)N(c2ccccc2)C1(O)CBr` (centres undefined) the value was 152 to 154 °C; for `CCOc1ccc(C(OC(C)=O)c2sccc2C=O)cc1OCC` (centres undefined), 68 °C; for `CCN(CC)CCCNc1nc(Cl)nc(NCCCN(CC)CC)n1`, 119 °C.
Consider `CCOP(=O)(OCC)c1ccccc1`, for which the melting point came out at 256 °C.
`Cc1ccc2cc(C(=O)NC3(C(=O)O)CCCC3)sc2c1`: the melting point was 214 to 217 °C.
For the compound `Cc1nc2sccn2c(=O)c1CCN1CCC(NC(=O)c2cc(Cl)c(N)c3c2OCCC3)CC1`, the melting point was determined as 212 °C.
`CC(C)(C)C(=O)CC(=O)c1ncn2c1c(=O)n(C(C)(C)C)c1ccccc12` displayed a melting point of 190 to 191 °C.
For `O=S(=O)(CCCCl)Nc1ccc(Oc2cccc3cccnc23)cc1` the value was 161 to 162 °C.
To `COC(=O)c1ccc(C(F)(F)F)nc1S(=O)(=O)NC(=O)Nc1nc(OC)cc(OC)n1` belongs 130 to 137 °C; to `O=C(O)CS(=O)(=O)C12CC3CC(CC(C3)C1)C2`, 158 to 162 °C.
Compound `O=C(O)CCCCCc1nc2ccccc2o1` returned a melting point of 82 °C.
For `N#CCc1cnn2ccc3c(c12)CCO3` the value was 165 to 166 °C; for `CC(C)n1c(C=O)c(-c2ccc(F)cc2)c(-c2ccc(F)cc2)c1C(=O)NCc1ccc(S(C)(=O)=O)cc1`, 203 to 204 °C.
Take `CCCCCCCCCCCCCCCC(=O)OC(COCc1ccc(OC)cc1)COC(=O)CCCCCCCCCCCNC(=O)OCc1ccccc1` (centres undefined): the melting point was 44 to 47 °C.
Compound `CC(C)(C)OC(=O)N1CCN(CCC#N)CC1C(N)=O` (centres undefined) registered a melting point of 117 to 118 °C.
To `COc1cc(C2Cc3ccccc3-c3nc(N)c4ccccc4c32)cc(OC)c1OC` (centres undefined) belongs 272 °C; to `CSCc1cn(C)c2cc(Cl)ccc2c1=O`, 163 to 164 °C.
To `Cn1nc(-c2cnc(N)nc2-c2ccco2)ccc1=O` belongs 234 °C; to `Cc1ccc(-c2cc(C(F)(F)F)n3cnc(C#N)c3n2)cc1`, 197 °C.
To `CCCCOc1ncc(C(C)=O)cc1-c1nc2c(CC)n(C3CN(CC)C3)nc2c(=O)[nH]1` belongs 143 to 144 °C; to `O=C(Nc1cccnc1)N1CCc2cc(I)c(Cl)cc21`, more than 200 °C.
Take `CNC(c1ccc(O)cc1)c1csc(S(N)(=O)=O)c1` (centres undefined): the melting point was in the range of 127 to 129 °C.
Regarding `CCCCCCCCCCCCCCOc1ccccc1O`, the melting point fell in the range of 53 to 54 °C.
For `CCOC(=O)C(=O)c1csc(NC(=O)Nc2ccc(OC)cc2)n1` the value was 193 to 196 °C.
To `CCCCn1cc(/C=C(\Cc2cc3c(cc2OC)OCO3)C(=O)O)c(-c2ccc(OC)cc2OCc2ccccc2C(=O)O)n1` belongs 226 to 227 °C.
The compound `O=C1c2ccc(Cl)cc2C(O)N1CCBr` (centres undefined) returned a melting point of 164 to 168 °C.
Compound `C=CCc1ccccc1OC[C@@H](O)CNCCc1ccc(NC2CCN(C(=O)NCCCCCCCC)CC2)cc1` returned a melting point of 73 to 80 °C.
For `COC(=O)C(C(C)C)S(=O)(=O)N(C(C)=O)c1nc(OC)cc(OC)n1` (centres undefined) the value was 100 to 102 °C; for `Nc1ncc2c(n1)-c1ccc(Cl)cc1C(c1ccccc1Cl)=NC2`, 240 to 241 °C; for `Cc1c(C(=O)O)nc2c(cc(C)c3nc(C(=O)O)c(C)c(O)c32)c1O`, 205 to 206 °C.
To `O=C(O)Cc1n[nH]c2c(=O)[nH]c3cc(Cl)ccc3c(=O)c12` belongs 297 to 300 °C; to `O=C(O)c1cc(C(F)(F)F)cc([N+](=O)[O-])c1O`, 166 to 168 °C; to `CCCNC(=O)C(O)C1c2ccccc2C(=O)N1c1ccc2ccc(Br)nc2n1` (centres undefined), 174 °C.
